Experiment [1] concerns 28-standard receptor-binding profile. As to conditions: 1µM; cited from earlier work.
Experiment [2] addresses T1, [^3H]glycine uptake sites (GlyT-1) (Mus musculus, UniProt P28571).
T1 sequence (P28571 1-692): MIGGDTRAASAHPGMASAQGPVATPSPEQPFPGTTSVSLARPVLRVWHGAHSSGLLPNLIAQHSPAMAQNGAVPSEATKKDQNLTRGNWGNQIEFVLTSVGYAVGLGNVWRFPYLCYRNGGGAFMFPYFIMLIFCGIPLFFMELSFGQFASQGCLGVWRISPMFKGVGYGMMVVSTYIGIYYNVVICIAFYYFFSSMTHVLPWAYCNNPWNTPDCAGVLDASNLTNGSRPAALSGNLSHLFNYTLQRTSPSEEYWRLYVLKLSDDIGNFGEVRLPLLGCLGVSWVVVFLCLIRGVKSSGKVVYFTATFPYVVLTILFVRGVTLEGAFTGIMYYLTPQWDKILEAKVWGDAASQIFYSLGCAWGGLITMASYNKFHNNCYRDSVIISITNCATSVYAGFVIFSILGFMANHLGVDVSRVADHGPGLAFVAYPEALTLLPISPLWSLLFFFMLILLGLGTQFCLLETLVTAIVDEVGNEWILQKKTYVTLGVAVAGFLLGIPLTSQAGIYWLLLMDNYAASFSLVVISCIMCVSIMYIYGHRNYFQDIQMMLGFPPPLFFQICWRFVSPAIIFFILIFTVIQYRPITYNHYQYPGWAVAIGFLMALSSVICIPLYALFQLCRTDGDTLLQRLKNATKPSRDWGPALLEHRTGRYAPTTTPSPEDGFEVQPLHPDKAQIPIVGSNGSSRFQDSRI
Nature of the experiment: Inhibition of [^3H]glycine uptake in mouse brain homogenates. The experiment is classed as biochemical.

A value given as a limit tells only on which side of the number the result lay.

For `CN1CCCC[C@@H]1[C@@H](NC(=O)c1nccc(C(F)(F)F)c1Cl)c1ccsc1` [CHIBA-3007, 3-chloro-N-((S)-((R)-1-methylpiperidin-2-yl)(thiophen-3-yl)methyl)-4-(trifluoromethyl)picolinamide], the “inhibition in 28-standard receptor-binding profile” value in experiment [1] is reported as less than 50%. Also, the midpoint of inhibition in experiment [2], the IC50, lay at 2.7 nM.

The values above are taken from article PMC3569154 (Clinical Psychopharmacology and Neuroscience, 2012).
